pEC50: −log10 of the molar value. Active and inactive are the calls of the source. No cut-off for these calls is given here.

This is an account of results in ChEMBL document CHEMBL1152254, “Synthesis, biological evaluation, and molecular modeling investigation of chiral 2-(4-chloro-phenoxy)-3-phenyl-propanoic acid derivatives with PPARalpha and PPARgamma agonist activity” (Bioorg Med Chem, 2008).

Type in all cases: cell-based
Test [1] deals with T1, Peroxisome proliferator-activated receptor gamma (Homo sapiens, UniProt P37231).
T1 sequence (P37231 whole entry): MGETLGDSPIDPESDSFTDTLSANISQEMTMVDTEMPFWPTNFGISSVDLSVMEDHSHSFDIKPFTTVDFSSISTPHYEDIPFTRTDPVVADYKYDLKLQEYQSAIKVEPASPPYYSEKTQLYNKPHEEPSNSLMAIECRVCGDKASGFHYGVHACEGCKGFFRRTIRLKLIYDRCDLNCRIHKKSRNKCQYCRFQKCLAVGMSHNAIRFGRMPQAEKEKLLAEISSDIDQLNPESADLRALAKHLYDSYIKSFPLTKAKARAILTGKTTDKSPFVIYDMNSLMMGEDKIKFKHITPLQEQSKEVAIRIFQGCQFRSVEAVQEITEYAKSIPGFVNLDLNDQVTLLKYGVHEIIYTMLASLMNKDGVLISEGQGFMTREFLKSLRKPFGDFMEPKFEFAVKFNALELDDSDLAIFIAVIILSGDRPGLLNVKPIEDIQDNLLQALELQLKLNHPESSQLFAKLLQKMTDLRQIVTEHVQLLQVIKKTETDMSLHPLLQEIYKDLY
Put plainly: (§1) Agonist activity at human PPARgamma ligand binding domain expressed in human HepG2 cells co-transfected with Gal4 by luciferase reporter gene assay. On the technique in general: In a reporter assay the amount or activity of a reporter protein is the signal.

Test [2] concerns the target T2, Peroxisome proliferator-activated receptor alpha (Homo sapiens, UniProt Q07869).
T2 sequence (Q07869 whole entry): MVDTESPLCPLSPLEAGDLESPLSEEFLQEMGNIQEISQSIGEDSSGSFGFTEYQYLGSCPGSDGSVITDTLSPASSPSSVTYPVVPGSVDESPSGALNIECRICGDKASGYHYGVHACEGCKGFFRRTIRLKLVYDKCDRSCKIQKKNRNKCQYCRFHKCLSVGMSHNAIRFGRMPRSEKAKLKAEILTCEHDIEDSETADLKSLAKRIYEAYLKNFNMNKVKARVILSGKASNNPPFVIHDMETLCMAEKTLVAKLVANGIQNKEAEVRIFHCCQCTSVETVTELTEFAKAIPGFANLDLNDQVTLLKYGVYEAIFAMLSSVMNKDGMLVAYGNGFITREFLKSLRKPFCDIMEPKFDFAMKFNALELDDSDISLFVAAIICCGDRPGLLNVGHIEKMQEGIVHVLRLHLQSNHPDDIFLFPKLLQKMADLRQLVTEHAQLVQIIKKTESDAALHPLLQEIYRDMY
Put plainly: (§2) Agonist activity at human PPARalpha ligand binding domain expressed in human HepG2 cells co-transfected with Gal4 by luciferase reporter gene assay.

Test [3] has as its target T3, Peroxisome proliferator-activated receptor alpha (Homo sapiens) (UniProt Q07869).
T3 sequence (whole entry): T2 sequence (Q07869 whole entry)
Put plainly: Agonist activity at human PPARalpha ligand binding domain expressed in human HepG2 cells co-transfected with Gal4 by luciferase reporter gene assay relative to Wy-14,643.

Test [4] has as its target T4, Peroxisome proliferator-activated receptor gamma (Homo sapiens) (UniProt P37231).
T4 sequence (whole entry): T1 sequence (P37231 whole entry)
The description is as §1.

Test [5] has as its target T3, Peroxisome proliferator-activated receptor alpha (Homo sapiens). Described as §2.

Usually pEC50 stands for the EC50 on a negative log10 scale, so that one unit is a factor of ten. A higher pEC50 goes with a small EC50. Consider `O=C(O)[C@H](Cc1ccccc1)Oc1ccc(Cl)cc1`, for which the pEC50 was 5.10 in test [1] and 4.84 in test [2]. The Efficacy in test [3] was 48%.

Consider `CCCc1ccc(CC(Oc2ccc(Cl)cc2)C(=O)O)cc1` (stereo not drawn), for which the values for the pEC50 in test [1] and in test [2] were 5.86 and 6.46, respectively. This compound came in with an Efficacy in test [3] of 39%.

`CCCCCCc1ccc(CC(Oc2ccc(Cl)cc2)C(=O)O)cc1` (stereo not drawn) showed a pEC50 in test [2] of 6.35. This compound registered an Efficacy in test [3] of 56%.

Turning to `O=C(O)[C@H](Cc1ccc(C(F)(F)F)cc1)Oc1ccc(Cl)cc1`, the pEC50 in test [1] was 5.44; in test [2], 6.38. Further, the Efficacy in test [3] worked out at 69%.

In the case of `O=C(O)[C@H](Cc1ccc(Oc2ccccc2)cc1)Oc1ccc(Cl)cc1`, the pEC50 in test [1] was 6.06; in test [2], 7.57. Further, the Efficacy in test [3] was 68%.

Take `O=C(O)[C@H](Cc1ccc(-c2ccccc2)cc1)Oc1ccc(Cl)cc1`: the pEC50 is 5.95 in test [1] and 7.31 in test [2]. Moreover, the Efficacy in test [3] came out at 70%.

Regarding `O=C(O)[C@H](Cc1ccc(-c2cccs2)cc1)Oc1ccc(Cl)cc1`, the negative-log EC50 (pEC50) in test [1] was 6.23; in test [2] it was 7.19. This compound also had an Efficacy in test [3] of 71%.

For `CCCc1ccccc1CC(Oc1ccc(Cl)cc1)C(=O)O` (stereo not drawn), the pEC50 in test [1] is 5.43; in test [2], 5.84. Besides, the Efficacy in test [3] turned out to be 43%.

In the case of `O=C(O)[C@@H](Cc1ccc(Oc2ccccc2)cc1)Oc1ccc(Cl)cc1`, the negative-log EC50 (pEC50) in test [1] is 4.95; in test [2] it was 6.15. In test [3], this compound had an Efficacy of 15%.

As to `CCCCCCc1ccccc1CC(Oc1ccc(Cl)cc1)C(=O)O` (stereo not drawn), the outcome in test [4], in test [5] and in test [3] was inactive.

Compound `CCCc1cc(Cl)ccc1OC(Cc1ccccc1)C(=O)O` (stereo not drawn) came in with an Efficacy in test [3] of 18%.

Consider `CN(CCOc1ccc(CC2SC(=O)NC2=O)cc1)c1ccccn1` (stereo not drawn), for which, in test [4], the result was inactive. Moreover, in test [3], the Efficacy came to 100%.

Consider `Cc1cccc(Nc2cc(Cl)nc(SCC(=O)O)n2)c1C`, for which the outcome in test [5] and in test [3] was inactive.

Turning to `O=C(O)C(Cc1ccccc1-c1ccccc1)Oc1ccc(Cl)cc1` (stereo not drawn), the result in test [4], in test [5] and in test [3] was inactive.

Regarding `Cc1ccccc1CC(Oc1ccc(Cl)cc1)C(=O)O` (racemic), the negative logarithm of the EC50 (pEC50) in test [1] is 5.07; in test [2], 5.03. The same compound displayed an Efficacy in test [3] of 50%.

Regarding `Cc1ccc(CC(Oc2ccc(Cl)cc2)C(=O)O)cc1` (racemic), the negative logarithm of the EC50 (pEC50) is 5.36 in test [1] and 5.55 in test [2]. This compound also showed an Efficacy in test [3] of 53%.

For the compound `O=C(O)C(Cc1cccc(Oc2ccccc2)c1)Oc1ccc(Cl)cc1` (racemic), the pEC50 in test [1] is 5.51; in test [2], 6.62. In addition, the Efficacy in test [3] turned out to be 57%.

Take `O=C(O)C(Cc1ccc(Cl)cc1)Oc1ccc(Cl)cc1` (racemic): the pEC50 is 5.50 in test [1] and 5.65 in test [2]. Further, the Efficacy in test [3] worked out at 49%.

For `O=C(O)C(Cc1ccccc1Oc1ccccc1)Oc1ccc(Cl)cc1` (racemic), in test [4], the result was inactive. Also, the pEC50 in test [2] was 5.94. In test [3], the Efficacy turned out to be 40%.

Consider `O=C(O)C(Cc1ccccc1C(F)(F)F)Oc1ccc(Cl)cc1` (racemic), for which the values for the pEC50 in test [1] and in test [2] were 5.39 and 5.60, respectively. The compound also showed an Efficacy in test [3] of 43%.

`O=C(O)C(Cc1ccc(Oc2ccccc2)cc1)Oc1ccc(Cl)cc1` (racemic): the values for the pEC50 in test [1] and in test [2] were 5.97 and 7.19, respectively. In test [3], this compound returned an Efficacy of 58%.

Consider `O=C(O)C(Cc1ccccc1)Oc1ccc(Cl)cc1Br` (racemic), for which, in test [2], the negative-log EC50 (pEC50) is 5.78. The same compound showed an Efficacy in test [3] of 41%.

With `O=C(O)C(Cc1ccccc1Cl)Oc1ccc(Cl)cc1` (racemic), the pEC50 was 5.65 in test [1] and 5.66 in test [2]. This compound showed an Efficacy in test [3] of 44%.

With `O=C(O)C(Cc1ccccc1)Oc1ccc(Cl)c(Cl)c1` (racemic), the results for the negative-log EC50 (pEC50) in test [1] and in test [2] were 5.59 and 5.35, respectively. The compound also had an Efficacy in test [3] of 27%.

As to `O=C(O)C(Cc1ccccc1Br)Oc1ccc(Cl)cc1` (racemic), the pEC50 is 5.61 in test [1] and 5.65 in test [2]. In test [3], this compound came in with an Efficacy of 57%.

As to `O=C(O)C(Cc1ccc(Br)cc1)Oc1ccc(Cl)cc1` (racemic), the negative-log EC50 (pEC50) in test [1] is 5.68; in test [2], 5.96. This compound also gave an Efficacy in test [3] of 46%.

For the compound `O=C(O)C(Cc1ccccc1)Oc1ccc(Cl)cc1Cl` (racemic), the pEC50 in test [2] is 5.67. This compound also gave an Efficacy in test [3] of 50%.

For `CCCCCCc1cc(Cl)ccc1OC(Cc1ccccc1)C(=O)O` (racemic), the result in test [4], in test [5] and in test [3] was inactive.

Take `Cc1cc(Cl)cc(C)c1OC(Cc1ccccc1)C(=O)O` (racemic): the outcome in test [4], in test [5] and in test [3] was inactive.

For `Cc1cc(Cl)ccc1OC(Cc1ccccc1)C(=O)O` (racemic), the Efficacy in test [3] worked out at 34%.

On to `Cc1cccc(C)c1CC(Oc1ccc(Cl)cc1)C(=O)O` (racemic), for which the result in test [4], in test [5] and in test [3] was inactive.

As to `O=C(O)C(Cc1c(Cl)cccc1Cl)Oc1ccc(Cl)cc1` (racemic), the result in test [4], in test [5] and in test [3] was inactive.

As to `O=C(O)C(Cc1ccccc1)Oc1c(Cl)cc(Cl)cc1Cl` (racemic), the outcome in test [4], in test [5] and in test [3] was inactive.

As to `O=C(O)C(Cc1ccccc1)Oc1ccc(Cl)cc1-c1ccccc1` (racemic), the outcome in test [4], in test [5] and in test [3] was inactive.
